Measured values taken from patent US20030162825A1, “D-amino acid oxidase inhibitors for learning and memory” (SEPRACOR INC., priority 2001, published 2003).
“Also recorded” adds a separate entry of the source.

Columns and labels:
rats = experiment: Morris water maze test (learning and memory); assay type: in vivo, rat
Protocol: Training was conducted in a circular pool (160 cm in diameter) filled with water to a depth of 35 cm. The walls of the pool were blue, and the water was made opaque by the addition of approximately 20 ml of white, non-toxic water-based food dye. Water temperature was maintained at approximately 25° C.
During training, rats learn to swim to a submerged platform (approximately 2.5 cm below the surface) constructed of Nalgene with a roughened Plexiglas surface. The surface diameter was approximately 16 cm and its height was approximately 27.5 cm. Experiments were conducted in a darkened room. Lighting of the water-maze was arranged so that illumination of the pool was dim and equivalent in all quadrants. Both acquisition data and retention probe data were collected using Videomex Morris maze software and interface (Columbus Instruments, Columbus, Ohio). The apparatus monitored the animal's progress using a video camera connected to a monitor and a video analysis computer that was outside the view of the swimming animal. Latencies to escape to the platform, the animal's swimming route, and its time spent in the platform-containing quadrant were measured.
Morris maze acquisition training (learning) consisted of 18 trials presented in 6 blocks of 3 trials each. During all training and testing procedures, the experimenter was blind to the animal group membership. To orient the animals to the task, training began with placement of the animal's front paws onto the platform followed by 10 sec of the animal's standing on the platform. Immediately after the third placement, training commenced with the first block of 3 trials. The platform was placed in the center of the southwest quadrant for all training. On each trial, rats were placed into the pool randomly at one of 6 different angular directions. […] Latency to escape to the platform was measured for each trial. […]
[…] The amount of time spent in the quadrant previously occupied by the platform and number of crosses over the previous position of the platform were recorded for each animal. […]

[1] = molecular target: T1, Porcine kidney D-amino acid oxidase (Sus scrofa, UniProt P00371); experiment: D-amino acid oxidase inhibition assay (Amplex Red Hydrogen Peroxide Assay Kit); assay type: biochemical; settings: D-serine substrate, reaction time five minutes; for inhibition at 40 µg/mL: inhibitor at 40 μg/mL
T1 construct: purchased Sigma Company A-5222; host or cells: porcine kidney
T1 sequence (P00371 whole entry): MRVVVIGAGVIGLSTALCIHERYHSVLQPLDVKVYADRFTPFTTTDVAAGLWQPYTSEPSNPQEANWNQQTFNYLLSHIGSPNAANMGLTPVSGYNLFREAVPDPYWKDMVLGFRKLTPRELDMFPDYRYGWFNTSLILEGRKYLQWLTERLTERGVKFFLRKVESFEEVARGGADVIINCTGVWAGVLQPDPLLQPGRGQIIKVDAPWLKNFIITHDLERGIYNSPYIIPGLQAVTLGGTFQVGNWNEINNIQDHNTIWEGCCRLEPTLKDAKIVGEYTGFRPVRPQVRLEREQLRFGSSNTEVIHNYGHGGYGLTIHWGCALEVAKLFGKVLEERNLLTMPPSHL
Protocol: A working solution was prepared by mixing: sodium phosphate buffer (8.7 ml, 0.025M, pH 7.4), D-serine solution (1.0 ml, 100 mM in water), horseradish peroxidase (0.2 ml, 200 U/ml in buffer), and Amplex™ Red solution (0.1 ml, 1 mg dye in 200 μl in DMSO (50 μM in DMSO)). A working enzyme solution was prepared by diluting a D-amino oxidase stock solution (65 U/ml) one hundred fold. The working solution (100 μl) was transferred to wells of a Microfluor B microtiter plate and a solution of the inhibitor in DMF was added.
Control experiments were carried out using DMF in the absence of inhibitor.

With `O=C(O)c1cc2ccccc2[nH]1` [I-2-C, indole-2-carboxylic acid] as the compound, how does the “retention (seconds swimming in the quadrant previously containing the escape platform)” value (rats; first experiment: 200 mg/kg ip four times, one hour before first, second, fourth and sixth training period, four days after training) read?
Its value is “improved retention”.

And the retention in seconds (rats; second experiment: single injection 200 mg/kg, eight days later, 200 mg/kg)?
Its retention in seconds is “improving effect on retention; also recorded: improved retention”.

And the retention (rats; third experiment: single injection 200 mg/kg, first probe trial)?
Its retention is “improved retention”.

With `O=C(O)c1cc2ccccc2[nH]1` [compound 1] as the compound, how does the IC50 [1] read?
Its IC50 is 2 µM.

And the inhibition at 40 µg/mL [1]?
Its inhibition at 40 µg/mL is 93%.

How did the inhibition at 40 µg/mL [1] turn out when `O=C(O)c1cc2cc(O)ccc2[nH]1` [compound 2] was run?
Its inhibition at 40 µg/mL is 90%.

With `O=C(O)c1ccc[nH]1` [compound 3] as the compound, how does the inhibition at 40 µg/mL [1] read?
The inhibition at 40 µg/mL was 87%.

Which inhibition at 40 µg/mL [1] does the source give for `O=C(O)c1cc2cc(Cl)ccc2[nH]1` [compound 4] here?
Its inhibition at 40 µg/mL is 86%.

Which inhibition at 40 µg/mL [1] does the source give for `O=C(O)c1cc2ccccc2o1` [compound 5] here?
The inhibition at 40 µg/mL was 85%.

For `Cn1c(C(=O)O)cc2ccccc21` [compound 6], which inhibition at 40 µg/mL [1] is on record?
Its inhibition at 40 µg/mL is 58%.

`COc1ccc2[nH]c(C(=O)O)cc2c1` [compound 7] was tested. Which inhibition at 40 µg/mL [1] did it give?
The inhibition at 40 µg/mL was 32%.

Which IC50 [1] does the source give for `O=C(O)c1ccc([N+](=O)[O-])c2c1NC(c1ccccc1)C1CC=CC21` (stereo not shown) [compound 10] here?
The IC50 was 17 µM.

How did the IC50 [1] turn out when `O=C(O)c1ccc([N+](=O)[O-])c2c1NC(c1ccc([N+](=O)[O-])cc1)C1CC=CC21` (stereo not shown) [compound 11] was run?
The IC50 was 29 µM.
